Laboratory results taken from PMC5336524 (Drug testing and analysis, 2016).
Read-outs that look alike come from different tables or passages of the source.

Assays:
[1] = target: T1, dopamine transporters (DAT) (Rattus norvegicus, UniProt P23977); test: [3H]MPP+ release via DAT from rat brain synaptosomes; format: biochemical; settings: for [3H]MPP+ release via DAT EC50: rat brain synaptosomes, 9 nM [3H]MPP+, mean ± SD, n = 3, inactive = efficacy less than 33% of maximal release
[2] = target: T2, norepinephrine transporters (NET) (Rattus norvegicus, UniProt Q63380); test: [3H]norepinephrine uptake inhibition in rat brain synaptosomes; format: biochemical
[3] = target: T1, dopamine transporters (DAT); test: [3H]dopamine uptake inhibition in rat brain synaptosomes; format: biochemical; settings: 5 nM [3H]dopamine, mean ± SD, n = 3, inactive = no inhibition at 10,000 nM; for IC50: [3H]DA uptake via DAT IC50, rat brain synaptosomes
5-HT transporters (SERT) = 5-HT transporters (SERT) (Rattus norvegicus, UniProt P31652); test: [3H]5-HT release via SERT from rat brain synaptosomes; format: biochemical
[4] = target: serotonin transporters (SERT) (Rattus norvegicus, UniProt P31652); test: [3H]serotonin uptake inhibition in rat brain synaptosomes; format: biochemical
[5] = Stability of N-methoxymephedrone; format: physicochemical; settings: solid; over time converts from a colourless solid to a brown solid; hygroscopic
[6] = target: T2, norepinephrine transporters (NET); test: [3H]MPP+ release via NET from rat brain synaptosomes; format: biochemical; settings: for [3H]MPP+ release via NET EC50: rat brain synaptosomes, 9 nM [3H]MPP+, mean ± SD, n = 3, inactive = efficacy less than 33% of maximal release
[7] = ratio of uptake IC50 values versus mexedrone
[8] = [3H]5-HT release via SERT EC50, rat brain synaptosomes, 5 nM [3H]5-HT, mean ± SD, n = 3, inactive = efficacy less than 33% of maximal release

T1 sequence (P23977 whole entry): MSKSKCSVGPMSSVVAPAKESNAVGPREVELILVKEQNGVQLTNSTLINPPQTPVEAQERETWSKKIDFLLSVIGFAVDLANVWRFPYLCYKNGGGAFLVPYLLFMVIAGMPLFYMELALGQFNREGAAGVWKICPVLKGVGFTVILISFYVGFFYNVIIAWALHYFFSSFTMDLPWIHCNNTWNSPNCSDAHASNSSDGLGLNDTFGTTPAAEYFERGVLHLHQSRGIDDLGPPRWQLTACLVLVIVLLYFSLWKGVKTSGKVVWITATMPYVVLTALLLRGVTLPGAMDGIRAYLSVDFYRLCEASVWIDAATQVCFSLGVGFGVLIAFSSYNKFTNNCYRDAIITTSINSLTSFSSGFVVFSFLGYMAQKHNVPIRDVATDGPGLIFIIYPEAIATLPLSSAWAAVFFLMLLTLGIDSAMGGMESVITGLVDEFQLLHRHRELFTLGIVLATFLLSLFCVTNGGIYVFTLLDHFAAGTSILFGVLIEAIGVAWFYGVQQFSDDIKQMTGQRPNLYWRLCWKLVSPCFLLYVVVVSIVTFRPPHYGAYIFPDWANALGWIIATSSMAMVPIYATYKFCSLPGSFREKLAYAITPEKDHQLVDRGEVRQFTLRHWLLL
T2 sequence (Q63380 1-617): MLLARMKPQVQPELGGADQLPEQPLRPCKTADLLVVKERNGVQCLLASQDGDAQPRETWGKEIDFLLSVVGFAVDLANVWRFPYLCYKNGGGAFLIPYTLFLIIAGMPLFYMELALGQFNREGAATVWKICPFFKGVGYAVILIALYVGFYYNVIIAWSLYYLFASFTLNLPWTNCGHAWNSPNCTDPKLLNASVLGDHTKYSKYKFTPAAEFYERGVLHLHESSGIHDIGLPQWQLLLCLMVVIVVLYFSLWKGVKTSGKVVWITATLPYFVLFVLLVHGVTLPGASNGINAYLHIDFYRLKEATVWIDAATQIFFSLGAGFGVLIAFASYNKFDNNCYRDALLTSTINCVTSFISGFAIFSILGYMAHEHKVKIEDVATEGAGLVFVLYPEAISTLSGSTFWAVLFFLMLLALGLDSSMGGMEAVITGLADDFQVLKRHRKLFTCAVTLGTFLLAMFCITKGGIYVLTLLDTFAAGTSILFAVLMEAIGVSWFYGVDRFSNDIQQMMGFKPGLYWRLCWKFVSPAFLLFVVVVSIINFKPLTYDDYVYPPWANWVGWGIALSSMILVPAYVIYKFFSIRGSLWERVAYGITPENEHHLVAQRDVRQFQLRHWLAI
Chain of 5-HT transporters (SERT) (P31652 whole entry): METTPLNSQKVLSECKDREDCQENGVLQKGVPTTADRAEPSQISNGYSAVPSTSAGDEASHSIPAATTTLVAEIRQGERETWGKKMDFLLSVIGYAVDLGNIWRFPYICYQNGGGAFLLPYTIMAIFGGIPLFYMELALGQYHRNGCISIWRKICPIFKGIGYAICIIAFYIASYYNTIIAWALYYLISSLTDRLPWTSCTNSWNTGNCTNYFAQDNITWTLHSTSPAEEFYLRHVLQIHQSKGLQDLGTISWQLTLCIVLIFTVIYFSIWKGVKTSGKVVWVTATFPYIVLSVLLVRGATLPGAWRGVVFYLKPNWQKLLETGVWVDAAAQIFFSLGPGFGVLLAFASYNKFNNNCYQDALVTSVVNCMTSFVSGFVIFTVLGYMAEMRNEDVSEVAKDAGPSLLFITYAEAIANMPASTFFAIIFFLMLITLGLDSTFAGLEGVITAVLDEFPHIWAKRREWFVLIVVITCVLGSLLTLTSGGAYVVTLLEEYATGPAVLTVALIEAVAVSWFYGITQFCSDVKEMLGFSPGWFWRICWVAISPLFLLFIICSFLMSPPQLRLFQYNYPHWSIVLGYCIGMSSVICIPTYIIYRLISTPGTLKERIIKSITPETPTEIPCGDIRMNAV
Chain of serotonin transporters (SERT) (P31652 whole entry): as above

Compound	EC50 [1] [nM]	IC50 [2] [µM]	fold more potent than mexedrone at NET (uptake inhibition) [2, 7] [fold]	IC50 [3] [µM]	EC50 (5-HT transporters (SERT)) [nM]	IC50 [4] [µM]	fold more potent than mexedrone at SERT (uptake inhibition) [4, 7] [fold]	stability in crystalline form [5]	EC50 [6] [nM]	EC50 (5-HT transporters (SERT); [8]) [nM]	[3H]MPP+ release via DAT EC50 [1]	EC50 (5-HT transporters (SERT); releasing activity at SERT EC50, rat brain synaptosomes) [nM]	[3H]MPP+ release via NET EC50 [6]	[3H]NE uptake via NET IC50 ([2]; rat brain synaptosomes, 10 nM [3H]norepinephrine, mean ± SD, n = 3, inactive = no inhibition at 10,000 nM)	[3H]DA uptake via DAT IC50 ([3]; rat brain synaptosomes)	[3H]5-HT release via SERT EC50 (5-HT transporters (SERT); rat brain synaptosomes, 5 nM [3H]5-HT, mean ± SD, n = 3, inactive = efficacy less than 33% of maximal release)	[3H]5-HT uptake via SERT IC50 ([4]; rat brain synaptosomes, 5 nM [3H]serotonin, mean ± SD, n = 3, inactive = no inhibition at 10,000 nM)
CON(C)C(C)C(=O)c1ccc(C)cc1 (stereo not shown) [N-Methoxymephedrone, 2-(Methoxy(methyl)amino)-1-(4-methylphenyl)propan-1-one]	666 ± 132	3.46 ± 0.728	2.6	6.09 ± 1.62	1040 ± 271	3.33 ± 1.13	1.6	unstable	313 ± 51								
CNC(C)C(=O)c1ccc(C)cc1 (stereo not shown) [Mephedrone, 2-(methylamino)-1-(4-methylphenyl)propan-1-one, reference compound]	45 ± 6	0.494 ± 0.093		1.06 ± 0.085		0.47 ± 0.0076			58 ± 7	163 ± 30							
CNC(COC)C(=O)c1ccc(C)cc1 (stereo not shown) [Mexedrone, 3-Methoxy-2-(methylamino)-1-(4-methylphenyl)propan-1-one]		8.87 ± 3.1		6.84 ± 1.52		5.29 ± 1.62				2520 ± 560	inactive	2500	inactive				
CNC(CCl)C(=O)c1ccc(C)cc1 (stereo not drawn) [α-Chloromethylmephedrone, 3-chloro-2-(methylamino)-1-(4-methylphenyl)propan-1-one]											inactive		inactive	inactive	inactive	inactive	inactive
